target: T1, Human Rheumatoid Synovial Collagenase (Homo sapiens, UniProt P03956); assay: Collagenase inhibition (procedure of Cawston and Barrett, acetyl 14C collagen); type: biochemical; details: 37° C., 16 hours, native acetyl 14C collagen, Tris HCl-CaCl2 pH 7.6
T1 construct: from tissue
T1 sequence (P03956 100-469): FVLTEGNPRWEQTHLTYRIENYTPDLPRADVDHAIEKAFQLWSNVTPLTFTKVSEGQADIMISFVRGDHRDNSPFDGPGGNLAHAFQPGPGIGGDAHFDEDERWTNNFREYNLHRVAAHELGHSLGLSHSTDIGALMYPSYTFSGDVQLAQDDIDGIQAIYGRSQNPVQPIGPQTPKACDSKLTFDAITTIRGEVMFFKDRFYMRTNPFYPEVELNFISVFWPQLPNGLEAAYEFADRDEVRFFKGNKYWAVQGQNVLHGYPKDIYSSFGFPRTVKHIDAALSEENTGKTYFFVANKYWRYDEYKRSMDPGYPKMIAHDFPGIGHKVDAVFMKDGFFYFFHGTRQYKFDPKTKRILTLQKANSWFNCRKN
Experimental: This was determined following the procedure of Cawston and Barrett, Anal. Biochem., 99, 340-345 (1979) whereby the 1 mM of the inhibitor being tested or dilutions thereof are incubated at 37° C. for 16 hours with native collagen and collagenase (buffered with Tris HCl--CaCl2; pH 7.6). The collagen is acetyl ^14 C collagen. The samples are centrifuged to sediment undigested collagen and an aliquot of the radiactive supernatant removed for assay on a scintillation counter as a measure of hydrolysis. The collagenase activity in the presence of 1 mM inhibitor, or a dilution thereof, is compared to activity in a control devoid of inhibitor and the results reported as that inhibitor concentration effecting 50% inhibition of the collagenase.

Point of comparison: COc1ccc(C[C@H](NC(=O)[C@H](CC(C)C)N[C@H](CCNC(=O)OCc2ccccc2)C(=O)O)C(=O)NCCc2ccccc2)cc1 [Example 36, N-[3-N-(Benzyloxycarbonyl)amino-1-(R)-carboxypropyl]-L-leucyl-O-methyl-L-tyrosine N-Phenethylamide], IC50 1 µM. Against it:
- CNC(=O)[C@H](Cc1ccc(OC)cc1)NC(=O)[C@H](CC(C)C)N[C@H](CCNC(=O)c1ccc([N+](=O)[O-])cc1)C(=O)O [Example 16, N-[3-N-(P-Nitrobenzoyl)amino-1-(R)-carboxypropyl]-L-leucyl-O-methyl-L-tyrosine. N-Methylamide] — 4.9-fold higher, 4.9 µM
- CNC(=O)[C@H](Cc1ccc(OC)cc1)NC(=O)[C@H](CC(C)C)N[C@H](CCCCNC(=O)OCc1ccccc1)C(=O)O [Example 21, N-[5-N-(Benzyloxycarbonyl)amino-1-(R)-carboxypentyl]-L-leucyl-O-methyl-L-tyrosine N-Methylamide] — 11-fold higher, 11 µM
- CNC(=O)[C@H](Cc1ccc(OC2CCCC2)cc1)NC(=O)[C@H](CC(C)C)N[C@H](CCNC(=O)OCc1ccccc1)C(=O)O [Example 33, N-[3-N-(Benzyloxycarbonyl)amino-1-(R)-carboxypropyl]-L-leucyl-O-cyclopentyl-L-tyrosine N-Methylamide] — within 1.5-fold, 0.74 µM
- CCCCNC(=O)COc1ccc(C[C@H](NC(=O)[C@H](CC(C)C)N[C@H](CCNC(=O)OCc2ccccc2)C(=O)O)C(=O)NC)cc1 [Example 34, N-[3-N-(Benzyloxycarbonyl)amino-1-(R)-carboxypropyl]-L-leucyl-O-(2-aminobutyl-2-oxo)ethyl-L-tyrosine N-Methylamide] — 2.6-fold higher, 2.6 µM
- N-[3-N-(Benzyloxycarbonyl)amino-1-(R)-carboxypropyl]-L-leucyl-O-(2'-carboxyethyl-L-leucyl N-Methylamide)-L-tyrosine N-Methylamide [Example 35] — 2.4-fold higher, 2.4 µM
- CNC(=O)[C@H](Cc1ccc(OC)cc1)NC(=O)[C@H](CC(C)C)N[C@H](CCN)C(=O)O [Example 13, N-[3-Amino-1-(R)-carboxypropyl]-L-leucyl-O-methyl-L-tryosine N-Methylamide] — 91-fold higher, 91 µM
- CNC(=O)[C@H](Cc1ccc(OC)cc1)NC(=O)[C@H](CC(C)C)N[C@H](CCNC(=O)OCc1ccc([N+](=O)[O-])cc1)C(=O)O [Example 14, N-[3-N-(p-Nitrobenzyloxycarbonyl)amino-1-(R)-carboxypropyl]-L-leucyl-O-methyl-L-tyrosine N-Methylamide] — within 1.5-fold, 1.2 µM
- CCCCNC(=O)[C@H](C)NC(=O)[C@H](CCCC)N[C@H](C)C(=O)O [Example 24, N-(1-(R)-Carboxyethyl)-S-norleucyl-S-alanine. N-Butylamide] — 19-fold higher, 19 µM
- CCCCCOc1ccc(C[C@H](NC(=O)[C@H](CC(C)C)N[C@H](CCNC(=O)OCc2ccccc2)C(=O)O)C(=O)NC)cc1 [Example 29, N-[3-N-(Benzyloxycarbonyl)amino-1-(R)-carboxypropyl]-L-leucyl-O-pentyl-L-tyrosine N-Methylamide] — 1.9-fold lower, 0.54 µM
- CNC(=O)[C@H](Cc1ccc(OCc2ccccc2)cc1)NC(=O)[C@H](CC(C)C)N[C@H](C)C(=O)O [Example 5, N[1-(R)-Carboxyethyl]-L-leucyl-O-benzyl-L-tyrosine N-Methylamide] — 1.7-fold higher, 1.7 µM
- CNC(=O)[C@H](Cc1ccc(OCc2ccccc2)cc1)NC(=O)[C@H](CC(C)C)N[C@H](CCNC(=O)OCc1ccccc1)C(=O)O [Example 32, N-[3-N-(Benzyloxycarbonyl)amino-1-(R)-carboxypropyl]-L-leucyl-O-benzyl-L-tyrosine N-Methylamide] — within 1.5-fold, 0.91 µM
- CNC(=O)[C@H](Cc1ccc(O)cc1)NC(=O)[C@H](CC(C)C)N[C@H](CCNC(=O)c1ccccc1)C(=O)O [Example 15, N-[3-N-(Benzoyl)amino-1-(R)-carboxy-propyl]-L-leucyl-L-tyrosine N-Methylamide] — 3.1-fold higher, 3.1 µM
- CNC(=O)[C@H](Cc1ccc(OC)cc1)NC(=O)[C@H](CC(C)C)N[C@H](CCSC)C(=O)O [Example 7, N[1-(R)-Carboxy-3-methylthiopropyl]-L-leucyl-O-methyl-L-tyrosine N-methylamide] — 5.5-fold higher, 5.5 µM
- CNC(=O)[C@H](Cc1ccc(OCCC(C)C)cc1)NC(=O)[C@H](CC(C)C)N[C@H](CCNC(=O)OCc1ccccc1)C(=O)O [Example 30, N[3-N-(Benzyloxycarbonyl)amino-1-(R)-carboxypropyl]-L-leucyl-O-3(methyl)butyl-L-tyrosine N-methyl amide] — within 1.5-fold, 1.1 µM
- CCCOc1ccc(C[C@H](NC(=O)[C@H](CC(C)C)N[C@H](CCNC(=O)OCc2ccccc2)C(=O)O)C(=O)NC)cc1 [Example 26, N-(3-N-(Benzyloxycarbonyl)amino-1-(R)-carboxypropyl)-L-leucyl-O-propyl-L-tyrosine N-methyl amide] — within 1.5-fold, 0.74 µM
- CNC(=O)[C@H](Cc1ccc(OC(C)(C)C)cc1)NC(=O)[C@H](CC(C)C)N[C@H](CCNC(=O)OCc1ccccc1)C(=O)O [Example 28] — 3.6-fold higher, 3.6 µM
- CNC(=O)[C@H](Cc1ccc(OCCCCCC(C)C)cc1)NC(=O)[C@H](CC(C)C)N[C@H](CCNC(=O)OCc1ccccc1)C(=O)O [Example 31, N-[3-N-(Benzyloxycarbonyl)amino-1-(R)-carboxypropyl]-L-leucyl-O-6(methyl)heptyl-L-tyrosine N-methyl amide] — 2.5-fold higher, 2.5 µM
- N-[3-(N'-Benzyl)carbamoyl-1-(R)-carboxypropyl]-L-leucyl-O-methyl-L-tyrosineN-Methylamide [Example 18] — within 1.5-fold, 1.3 µM
- CC(C)C[C@H](N[C@H](CCNC(=O)OCc1ccccc1)C(=O)O)C(=O)NCCc1ccccc1 [Example 19, N-[3-N-(Benzyloxycarbonyl)amino-1-(R)-carboxypropyl]-L-leucine N-Phenethylamide] — 51-fold higher, 51 µM
- CNC(=O)[C@H](Cc1ccc(O)cc1)NC(=O)[C@H](CC(C)C)N[C@H](CCNC(=O)OCc1ccccc1)C(=O)O [Example 25, N-[3-N-(Benzyloxycarbonyl)amino-1-(R)-carboxypropyl]-L-leucyl-L-tyrosine N -Methylamide] — within 1.5-fold, 1.2 µM
- CNC(=O)[C@H](Cc1ccc(OC)cc1)NC(=O)[C@H](CC(C)C)N[C@H](CCCNC(=O)OCc1ccccc1)C(=O)O [Example 9, N-[4-N-(Benzyloxycarbonyl)amino-1-(R)-carboxybutyl]-L-leucyl-O-methyl-L-tyrosine N-Methylamide] — 9.5-fold higher, 9.5 µM
- CNC(=O)[C@H](Cc1ccc(OC(C)C)cc1)NC(=O)[C@H](CC(C)C)N[C@H](CCNC(=O)OCc1ccccc1)C(=O)O [Example 27, N-[3-N-(Benzyloxycarboxyl)amino-1-(R)-carbonypropyl]-L-leucyl-O-isopropyl-L-tyrosine N-methylamide] — 2.1-fold higher, 2.1 µM
- CNC(=O)[C@H](Cc1ccc(OC)cc1)NC(=O)[C@H](CC(C)C)N[C@H](CCCCNC(=O)[C@@H]1CCCN1C(C)=O)C(=O)O [Example 22, N-[5-N-[N-Acetyl-L-prolyl]amino-1-(R)-carboxypentyl]-L-leucyl-O-methyl-L-tyrosine N-Methylamide] — 42-fold higher, 42 µM
- CC(C)C[C@H](N[C@H](C)C(=O)O)C(=O)NCCc1ccccc1 [Example 6, N[1-(R)-Carboxyethyl]-L-Leucine N-Phenethylamide] — 42-fold higher, 42 µM

test system: rat model of inflammatory arthritis; assay: Rat model of inflammatory arthritis induced by Type II collagen (Trentham et al.); type: in vivo; details: arthritic rats' paws; Example 11 100 mg/kg i.p. twice daily for 21 days; prednisolone 0.625 mg/kg b.i.d.; area-under-the-curve data
Experimental: The therapeutic effectivness is assessed in the rat model of inflammatory arthritis described by Trentham et al. (1977). In this model, the arthritis, induced by an intradermal injection of Type II collagen, generally develops in both hind paws and the progression and severity of the lesion are monitored by physical measurements of the malleolar width and ankle extensibility.
The compound of Example II in the present specification was administered by intraperitoneal injections at 100 mg/kg twice daily for 21 days commencing seven days after the injection of the disease.
Drugs (Example 11 or prednisolone) and vehicle were administered to groups of 10 rats each. Physical measurements on the rat paws were made weekly for four weeks and consisted of (a) the distance between the medial and lateral malleolus (malleolar width) and (b) the ankle extension which was measured by applying a standard force to th rat paw and measuring the angle formed between the flexor surface of the foot and the tibia. Evidence of a therapeutic effect was denoted by a significant reduction in malleolar width and a significant increase in ankle extension. Both measurements were carried out in apparatus designed for the purpose. Area-under-the-curve data from these time course experiments was examinaed by non-parametic statistical analysis. The prednisolone standard was given at a dose of 0.625 mg/kg b.i.d. Prednisolone was chosen as a standard since steroids are known to be effective both clinically in Rheumatoid Arthritis and in animal models of arthritis.

In the case of C[C@]12C=CC(=O)C=C1CC[C@@H]1[C@@H]2[C@@H](O)C[C@@]2(C)[C@H]1CC[C@]2(O)C(=O)CO [Prednisolone, prednisolone, reference compound], the “Ankle extension, percentage change from control, experiment number 2” value is reported as 96%.

In the case of C[C@]12C=CC(=O)C=C1CC[C@@H]1[C@@H]2[C@@H](O)C[C@@]2(C)[C@H]1CC[C@]2(O)C(=O)CO [Prednisolone, prednisolone, reference compound], the “Ankle extension, percentage change from control, experiment number 3” value is reported as 95%.

C[C@]12C=CC(=O)C=C1CC[C@@H]1[C@@H]2[C@@H](O)C[C@@]2(C)[C@H]1CC[C@]2(O)C(=O)CO [Prednisolone, prednisolone, reference compound] was tested, and the “Malleolar width, percentage change from control, experiment number 1” value was 98%.

C[C@]12C=CC(=O)C=C1CC[C@@H]1[C@@H]2[C@@H](O)C[C@@]2(C)[C@H]1CC[C@]2(O)C(=O)CO [Prednisolone, prednisolone, reference compound] was tested, and the “Malleolar width, percentage change from control, experiment number 2” value was 96%.

In the case of C[C@]12C=CC(=O)C=C1CC[C@@H]1[C@@H]2[C@@H](O)C[C@@]2(C)[C@H]1CC[C@]2(O)C(=O)CO [Prednisolone, prednisolone, reference compound], the “Malleolar width, percentage change from control, experiment number 3” value is reported as 97%.

same assay, conditions: mean of experiments 1-3; Example 11 100 mg/kg i.p. twice daily; prednisolone 0.625 mg/kg b.i.d.

C[C@]12C=CC(=O)C=C1CC[C@@H]1[C@@H]2[C@@H](O)C[C@@]2(C)[C@H]1CC[C@]2(O)C(=O)CO [Prednisolone, prednisolone, reference compound] was tested, and the “Ankle extension, percentage change from control, mean” value was 97%.

For C[C@]12C=CC(=O)C=C1CC[C@@H]1[C@@H]2[C@@H](O)C[C@@]2(C)[C@H]1CC[C@]2(O)C(=O)CO [Prednisolone, prednisolone, reference compound], the “Malleolar width, percentage change from control, mean” value was 97%.
